Results from ChEMBL document CHEMBL4219273, “Discovery of a novel olefin derivative as a highly potent and selective acetyl-CoA carboxylase 2 inhibitor with in vivo efficacy” (Bioorg Med Chem Lett, 2018).
pIC50: −log10 of the molar value.

Legend:
Cytochrome P450 3A4 = Cytochrome P450 3A4 (Homo sapiens, UniProt P08684); assay: Inhibition of CYP3A4 (unknown origin); format: ADME
Cytochrome P450 2D6 = Cytochrome P450 2D6 (Homo sapiens, UniProt P10635); assay: Inhibition of CYP2D6 (unknown origin); format: ADME
Chain of Cytochrome P450 2D6 (P10635 whole entry): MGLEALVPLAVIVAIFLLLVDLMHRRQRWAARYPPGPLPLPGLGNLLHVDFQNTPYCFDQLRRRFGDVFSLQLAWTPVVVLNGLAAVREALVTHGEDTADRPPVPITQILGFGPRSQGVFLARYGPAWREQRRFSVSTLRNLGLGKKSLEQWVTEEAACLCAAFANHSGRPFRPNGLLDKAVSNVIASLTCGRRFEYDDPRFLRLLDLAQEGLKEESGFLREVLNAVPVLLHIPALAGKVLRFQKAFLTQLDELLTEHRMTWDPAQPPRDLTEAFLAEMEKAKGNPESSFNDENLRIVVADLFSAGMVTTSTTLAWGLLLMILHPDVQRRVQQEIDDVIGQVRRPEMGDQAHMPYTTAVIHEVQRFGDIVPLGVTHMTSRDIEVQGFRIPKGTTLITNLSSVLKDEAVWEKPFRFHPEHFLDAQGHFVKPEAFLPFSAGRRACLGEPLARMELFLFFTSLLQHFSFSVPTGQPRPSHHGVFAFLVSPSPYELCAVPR

Cytochrome P450 2C19 = Cytochrome P450 2C19 (Homo sapiens, UniProt P33261); assay: Inhibition of CYP2C19 (unknown origin); format: ADME
Chain of Cytochrome P450 2C19 (P33261 whole entry): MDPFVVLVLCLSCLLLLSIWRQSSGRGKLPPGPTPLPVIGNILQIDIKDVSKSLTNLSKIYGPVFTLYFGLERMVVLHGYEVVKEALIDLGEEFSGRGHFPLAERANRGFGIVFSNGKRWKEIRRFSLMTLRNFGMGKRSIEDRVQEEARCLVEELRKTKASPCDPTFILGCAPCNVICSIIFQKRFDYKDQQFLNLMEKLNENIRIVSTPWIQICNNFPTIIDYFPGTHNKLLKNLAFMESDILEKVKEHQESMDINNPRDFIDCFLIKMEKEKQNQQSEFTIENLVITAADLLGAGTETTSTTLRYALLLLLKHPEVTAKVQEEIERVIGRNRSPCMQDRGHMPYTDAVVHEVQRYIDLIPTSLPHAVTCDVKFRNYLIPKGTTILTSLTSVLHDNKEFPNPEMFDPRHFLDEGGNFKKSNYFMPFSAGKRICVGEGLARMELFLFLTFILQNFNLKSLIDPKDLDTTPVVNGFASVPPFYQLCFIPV

Homo sapiens = organism: Homo sapiens; assay: Selectivity ratio of IC50 for recombinant human ACC1 to IC50 for recombinant human ACC2
Cytochrome P450 1A2 = target: T1, Cytochrome P450 1A2 (Homo sapiens, UniProt P05177); assay: Inhibition of CYP1A2 (unknown origin); format: ADME
T1 sequence (P05177 whole entry): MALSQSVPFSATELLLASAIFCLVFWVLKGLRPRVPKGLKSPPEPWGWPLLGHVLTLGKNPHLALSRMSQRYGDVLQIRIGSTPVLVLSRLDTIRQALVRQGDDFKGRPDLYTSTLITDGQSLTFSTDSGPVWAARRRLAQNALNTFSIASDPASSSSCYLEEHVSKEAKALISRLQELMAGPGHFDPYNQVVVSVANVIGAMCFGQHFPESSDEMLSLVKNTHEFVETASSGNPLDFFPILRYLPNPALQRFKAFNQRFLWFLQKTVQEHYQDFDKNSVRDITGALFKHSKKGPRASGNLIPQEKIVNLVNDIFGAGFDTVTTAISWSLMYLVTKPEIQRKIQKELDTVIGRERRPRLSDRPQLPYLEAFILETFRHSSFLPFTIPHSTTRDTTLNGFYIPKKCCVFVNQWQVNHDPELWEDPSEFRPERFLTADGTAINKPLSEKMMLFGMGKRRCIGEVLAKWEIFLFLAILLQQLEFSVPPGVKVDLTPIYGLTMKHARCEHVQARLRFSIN

Acetyl-CoA carboxylase 1 = Acetyl-CoA carboxylase 1 (Homo sapiens, UniProt Q13085); assay: Inhibition of recombinant human ACC1 assessed as reduction in conversion of acetyl-CoA to malonyl-CoA incubated for 1 to 3 hrs with substrate by MALDI-TOF-MS analysis
Cytochrome P450 2C9 = Cytochrome P450 2C9 (Homo sapiens, UniProt P11712); assay: Inhibition of CYP2C9 (unknown origin); format: ADME
Chain of Cytochrome P450 2C9 (P11712 whole entry): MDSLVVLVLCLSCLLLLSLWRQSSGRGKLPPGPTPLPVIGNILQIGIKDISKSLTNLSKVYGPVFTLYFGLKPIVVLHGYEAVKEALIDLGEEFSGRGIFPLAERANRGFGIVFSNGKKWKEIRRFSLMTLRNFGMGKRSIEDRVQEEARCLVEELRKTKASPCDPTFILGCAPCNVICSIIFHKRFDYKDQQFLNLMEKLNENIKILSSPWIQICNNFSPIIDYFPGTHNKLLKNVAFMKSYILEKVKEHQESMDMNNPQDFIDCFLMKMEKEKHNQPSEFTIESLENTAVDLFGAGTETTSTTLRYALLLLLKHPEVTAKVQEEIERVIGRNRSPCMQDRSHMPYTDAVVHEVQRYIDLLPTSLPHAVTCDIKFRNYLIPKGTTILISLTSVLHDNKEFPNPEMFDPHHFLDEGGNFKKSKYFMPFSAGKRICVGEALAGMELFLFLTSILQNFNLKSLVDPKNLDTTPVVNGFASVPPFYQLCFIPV

Acetyl-CoA carboxylase 2 = Acetyl-CoA carboxylase 2 (Homo sapiens, UniProt O00763); assay: Inhibition of recombinant human ACC2 assessed as reduction in conversion of acetyl-CoA to malonyl-CoA incubated for 1 to 3 hrs with substrate by MALDI-TOF-MS analysis
Chain of Acetyl-CoA carboxylase 2 (O00763 whole entry): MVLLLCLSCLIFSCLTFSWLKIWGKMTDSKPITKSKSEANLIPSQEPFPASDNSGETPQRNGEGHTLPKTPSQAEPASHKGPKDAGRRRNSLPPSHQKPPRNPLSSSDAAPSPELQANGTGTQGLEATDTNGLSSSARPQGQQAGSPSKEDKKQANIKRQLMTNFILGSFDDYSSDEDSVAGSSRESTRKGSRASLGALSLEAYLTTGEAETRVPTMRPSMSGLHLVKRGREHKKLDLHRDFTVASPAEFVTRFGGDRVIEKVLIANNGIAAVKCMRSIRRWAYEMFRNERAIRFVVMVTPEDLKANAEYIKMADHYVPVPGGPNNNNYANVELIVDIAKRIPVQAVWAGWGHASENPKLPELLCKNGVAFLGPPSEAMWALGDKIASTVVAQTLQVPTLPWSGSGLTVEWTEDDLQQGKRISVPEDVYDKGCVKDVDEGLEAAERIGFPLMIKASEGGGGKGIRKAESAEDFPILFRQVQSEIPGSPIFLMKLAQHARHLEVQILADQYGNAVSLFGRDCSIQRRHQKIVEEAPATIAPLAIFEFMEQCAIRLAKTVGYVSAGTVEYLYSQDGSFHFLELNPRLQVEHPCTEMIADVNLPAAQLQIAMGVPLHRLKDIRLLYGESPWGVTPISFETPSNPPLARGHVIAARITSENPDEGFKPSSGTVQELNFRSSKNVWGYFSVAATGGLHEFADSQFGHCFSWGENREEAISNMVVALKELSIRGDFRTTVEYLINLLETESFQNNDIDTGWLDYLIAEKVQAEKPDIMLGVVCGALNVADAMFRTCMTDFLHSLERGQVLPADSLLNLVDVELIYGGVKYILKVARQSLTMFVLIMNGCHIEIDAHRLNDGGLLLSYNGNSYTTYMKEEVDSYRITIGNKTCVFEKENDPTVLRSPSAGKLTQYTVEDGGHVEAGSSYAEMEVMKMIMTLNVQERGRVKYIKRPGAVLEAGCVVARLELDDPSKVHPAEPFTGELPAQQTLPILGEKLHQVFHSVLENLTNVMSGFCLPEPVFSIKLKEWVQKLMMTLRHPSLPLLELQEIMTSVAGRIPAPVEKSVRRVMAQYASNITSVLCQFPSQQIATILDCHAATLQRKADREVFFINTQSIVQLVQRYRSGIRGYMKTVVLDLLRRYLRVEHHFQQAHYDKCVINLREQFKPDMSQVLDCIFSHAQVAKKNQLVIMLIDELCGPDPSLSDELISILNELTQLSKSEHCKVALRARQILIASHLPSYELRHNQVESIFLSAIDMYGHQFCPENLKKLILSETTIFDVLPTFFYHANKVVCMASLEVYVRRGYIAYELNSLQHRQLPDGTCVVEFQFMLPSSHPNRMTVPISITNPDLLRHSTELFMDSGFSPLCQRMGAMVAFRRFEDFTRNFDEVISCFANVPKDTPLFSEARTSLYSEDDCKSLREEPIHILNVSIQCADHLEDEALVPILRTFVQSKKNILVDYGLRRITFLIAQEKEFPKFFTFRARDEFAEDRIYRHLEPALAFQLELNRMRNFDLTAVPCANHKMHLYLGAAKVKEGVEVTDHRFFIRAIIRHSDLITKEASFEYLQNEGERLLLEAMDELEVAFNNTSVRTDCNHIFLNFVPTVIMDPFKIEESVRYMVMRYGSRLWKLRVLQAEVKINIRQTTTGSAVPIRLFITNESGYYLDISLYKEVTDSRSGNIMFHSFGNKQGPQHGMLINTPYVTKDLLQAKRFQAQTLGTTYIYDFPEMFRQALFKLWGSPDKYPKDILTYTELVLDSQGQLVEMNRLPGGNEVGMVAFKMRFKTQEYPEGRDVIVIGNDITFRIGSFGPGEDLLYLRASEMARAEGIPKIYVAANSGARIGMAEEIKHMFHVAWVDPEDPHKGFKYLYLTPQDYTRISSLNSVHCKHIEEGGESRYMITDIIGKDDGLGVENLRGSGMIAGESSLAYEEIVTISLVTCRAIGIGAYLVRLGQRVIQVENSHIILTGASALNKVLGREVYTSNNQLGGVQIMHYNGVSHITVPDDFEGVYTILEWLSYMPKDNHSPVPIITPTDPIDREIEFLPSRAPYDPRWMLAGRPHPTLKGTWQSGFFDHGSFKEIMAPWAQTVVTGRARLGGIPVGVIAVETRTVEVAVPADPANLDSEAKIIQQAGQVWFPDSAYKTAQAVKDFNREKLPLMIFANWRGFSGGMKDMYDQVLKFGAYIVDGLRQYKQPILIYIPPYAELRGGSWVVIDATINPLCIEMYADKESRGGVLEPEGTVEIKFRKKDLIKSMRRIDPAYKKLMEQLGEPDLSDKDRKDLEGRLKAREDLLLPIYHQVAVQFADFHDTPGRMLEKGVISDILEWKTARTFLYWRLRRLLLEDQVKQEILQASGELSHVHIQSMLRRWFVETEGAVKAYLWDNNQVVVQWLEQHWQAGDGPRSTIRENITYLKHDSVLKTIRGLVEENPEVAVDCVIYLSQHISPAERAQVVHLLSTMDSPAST

[1] = Metabolic stability in human liver microsomes assessed as parent compound remaining after 30 mins; format: ADME, microsome; settings: read-out: Stability
[2] = Metabolic stability in rat liver microsomes assessed as parent compound remaining after 30 mins; format: ADME, microsome; settings: read-out: Stability

Chain of Cytochrome P450 3A4 (P08684 whole entry): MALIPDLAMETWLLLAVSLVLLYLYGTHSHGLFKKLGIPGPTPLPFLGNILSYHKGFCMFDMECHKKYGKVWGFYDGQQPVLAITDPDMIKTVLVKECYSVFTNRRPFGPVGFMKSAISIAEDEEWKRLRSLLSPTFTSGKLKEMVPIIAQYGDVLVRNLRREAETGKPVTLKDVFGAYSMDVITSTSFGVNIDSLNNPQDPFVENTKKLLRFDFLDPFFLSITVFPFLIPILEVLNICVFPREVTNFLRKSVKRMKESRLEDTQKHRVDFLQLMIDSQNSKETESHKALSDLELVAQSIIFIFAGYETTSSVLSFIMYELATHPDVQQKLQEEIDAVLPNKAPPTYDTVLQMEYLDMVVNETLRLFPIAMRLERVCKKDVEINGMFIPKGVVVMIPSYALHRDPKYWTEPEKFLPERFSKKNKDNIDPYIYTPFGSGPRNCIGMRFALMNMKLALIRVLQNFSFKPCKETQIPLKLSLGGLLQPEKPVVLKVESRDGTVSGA

SMILES	pIC50 (Cytochrome P450 3A4)	pIC50 (Cytochrome P450 2D6)	pIC50 (Cytochrome P450 2C19)	Ratio IC50 (Homo sapiens)	pIC50 (Cytochrome P450 1A2)	pIC50 (Acetyl-CoA carboxylase 1)	pIC50 (Cytochrome P450 2C9)	pIC50 (Acetyl-CoA carboxylase 2)	remaining at 0.5 h [1] [%]	remaining at 0.5 h [2] [%]
CC(=O)N[C@@H](C)/C=C/c1cnc(Oc2ccc(OCC3CC3)cc2Cl)n1C	< 4.70	< 4.70	< 4.70	82	< 4.70	4.43	5.00			
CC(=O)N[C@@H](C)/C=C/c1cnc(Oc2ccc(OCC3CC3)cc2)s1	< 4.70	< 4.70	4.74	63	< 4.70	5.71	5.09	7.51		
CC(=O)N[C@@H](C)/C=C/c1ccc(Oc2ccc(OCCF)cc2Cl)nc1	< 4.70	< 4.70	< 4.70	> 537	< 4.70	< 4.00	< 4.70	6.73		
CC(=O)N[C@@H](C)/C=C/c1ccc(Oc2ccc3sc(C(C)C)nc3c2Cl)nc1	< 4.70	< 4.70	4.96	21	< 4.70	6.07	4.85	7.40	88	77
CC(=O)N[C@@H](C)/C=C/c1ccc(Oc2ccc3nc(C(C)C)sc3c2F)nc1	< 4.70	< 4.70	< 4.70	17	< 4.70	7.46	< 4.70	8.68	84	51
CC(=O)N[C@@H](C)/C=C/c1nnc(Oc2ccc(OCC3CC3)cc2Cl)s1	< 4.70	< 4.70	< 4.70	> 395	< 4.70	< 4.00	4.82	6.60		
CC(=O)N[C@@H](C)/C=C/c1ccc(Oc2ccc(OCC(F)F)cc2Cl)nc1	< 4.70	< 4.70	< 4.70	> 1190	< 4.70	< 4.00	< 4.70	7.08		
CC(=O)N[C@@H](C)/C=C/c1ccc(Oc2ccc(OCC3CC3)cc2Cl)nn1	4.74	< 4.70	< 4.70	> 327	< 4.70	< 4.00	< 4.70	6.51		
CC(=O)N[C@@H](C)/C=C/c1ccc(Oc2ccc3nc(C(C)C)sc3c2Cl)nc1	4.72	< 4.70	4.74	70	< 4.70	6.52	4.89	8.37	83	52
CCOc1ccc(Oc2ncc(/C=C/[C@H](C)NC(C)=O)s2)cc1	< 4.70	< 4.70	< 4.70	> 1270	< 4.70	< 4.00	5.07	7.10		
CC(=O)N[C@@H](C)/C=C/c1ccc(Oc2ccc3nc(C(C)C)sc3c2C(F)(F)F)nc1	4.77	< 4.70	4.74	126	< 4.70	5.13	4.85	7.23	87	83
CC(=O)N[C@@H](C)/C=C/c1cnc(Oc2ccc(OCC3CC3)cc2Cl)s1	< 4.70	< 4.70	4.85	98	< 4.70	5.90	5.46	7.89		
CC(=O)N[C@@H](C)/C=C/c1cnc(Oc2ccc(OCC3CC3)cc2Cl)nc1	< 4.70	< 4.70	< 4.70	> 2080	< 4.70	< 4.00	< 4.70	7.32		
CCOc1ccc(Oc2ccc(/C=C/[C@H](C)NC(C)=O)cn2)c(Cl)c1	< 4.70	< 4.70	< 4.70	> 2170	< 4.70	< 4.00	< 4.70	7.34		
CC(=O)N[C@@H](C)/C=C/c1cnc(Oc2ccc(OCC3CC3)cc2Cl)cn1	< 4.70	< 4.70	< 4.70	30	< 4.70	6.12	< 4.70	7.60		
COC(=O)N[C@@H](C)/C=C/c1cnc(Oc2ccc(OC(C)C)cc2)s1	< 4.70	< 4.70	5.19	> 1320	< 4.70	< 4.00	5.57	7.12		
CC(=O)N[C@@H](C)/C=C/c1ccc(Oc2ccc3nc(C)sc3c2Cl)nc1	< 4.70	< 4.70	< 4.70	469	< 4.70	4.91	< 4.70	7.59	87	75
CC(=O)N[C@@H](C)/C=C/c1cnc(Oc2ccc(OC(C)C)cc2)s1	< 4.70	< 4.70	< 4.70	809	< 4.70	4.27	5.36	7.18		
CC(=O)N[C@@H](C)/C=C/c1ccc(Oc2ccc3nc(C(C)(C)O)sc3c2Cl)nc1	< 4.70	< 4.70	< 4.70	315	< 4.70	5.50	4.77	8.00	92	96
CC(=O)N[C@@H](C)/C=C/c1ccc(Oc2ccc(OCC3CC3)cc2Cl)nc1	4.80	< 4.70	< 4.70	140	< 4.70	6.02	5.02			
CC(=O)N[C@@H](C)/C=C/c1ccc(Oc2cc3sc(C)nc3cc2Cl)nc1	< 4.70	< 4.70	< 4.70	110	< 4.70	4.28	< 4.70	6.33	94	83
